In paper PMC12838199, “A highly conserved ABC transporter mediates cello-oligosaccharide uptake in the extremely thermophilic, lignocellulolytic bacterium Anaerocellum bescii (f. Caldicellulosiruptor bescii)” (Applied and Environmental Microbiology, 2025):

How the values were obtained:
Assay type in all cases: binding
Athe_0598 [1] = target: T1, Athe_0598 (Caldicellulosiruptor bescii, UniProt A0ABY1SBM3); test: differential scanning calorimetry; conditions: 5 mM sugar, 2 mg/mL protein, 50 mM HEPES, 300 mM NaCl, pH 7.0; 4 °C/min
T1 construct: gene SAMN05216240_2512; IMAC purified after 68 °C heat treatment
T1 sequence (A0ABY1SBM3 entry or part of it): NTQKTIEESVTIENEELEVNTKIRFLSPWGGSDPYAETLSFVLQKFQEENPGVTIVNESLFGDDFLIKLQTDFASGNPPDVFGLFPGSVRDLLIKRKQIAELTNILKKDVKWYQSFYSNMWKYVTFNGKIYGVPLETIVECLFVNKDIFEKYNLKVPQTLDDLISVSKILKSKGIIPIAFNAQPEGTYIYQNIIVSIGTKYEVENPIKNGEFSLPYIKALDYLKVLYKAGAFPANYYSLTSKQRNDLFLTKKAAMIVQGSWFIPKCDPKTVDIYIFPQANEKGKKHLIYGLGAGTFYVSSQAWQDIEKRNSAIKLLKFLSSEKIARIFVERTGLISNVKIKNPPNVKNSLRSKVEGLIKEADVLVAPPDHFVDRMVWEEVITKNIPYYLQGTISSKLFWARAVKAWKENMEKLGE
From the text: differential scanning calorimetry on Athe_0598

Athe_0597 [2] = target: T2, Athe_0597 (Caldicellulosiruptor bescii, UniProt A0ABY1SBW7); test: differential scanning calorimetry; conditions: 5 mM sugar, 2 mg/mL protein, 50 mM HEPES, 300 mM NaCl, pH 7.0; 4 °C/min
T2 construct: gene SAMN05216240_2513; IMAC purified after 68 °C heat treatment
T2 sequence (A0ABY1SBW7 entry or part of it): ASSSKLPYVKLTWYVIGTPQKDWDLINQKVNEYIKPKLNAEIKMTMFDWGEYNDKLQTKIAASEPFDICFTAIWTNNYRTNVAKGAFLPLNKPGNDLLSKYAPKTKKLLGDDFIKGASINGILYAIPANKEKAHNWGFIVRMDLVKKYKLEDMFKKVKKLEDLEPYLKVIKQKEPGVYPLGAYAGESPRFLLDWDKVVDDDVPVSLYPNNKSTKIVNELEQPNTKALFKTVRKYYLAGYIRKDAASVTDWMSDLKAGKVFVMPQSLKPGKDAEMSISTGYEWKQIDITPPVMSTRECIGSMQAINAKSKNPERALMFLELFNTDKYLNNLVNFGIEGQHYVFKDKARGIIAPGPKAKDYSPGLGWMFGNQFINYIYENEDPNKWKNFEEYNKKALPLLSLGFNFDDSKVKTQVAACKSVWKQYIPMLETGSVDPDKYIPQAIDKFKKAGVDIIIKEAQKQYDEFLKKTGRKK
From the text: differential scanning calorimetry on Athe_0597

Athe_0597 [3] = target: T2, Athe_0597; test: isothermal titration calorimetry; conditions: 25 °C; 50 mM HEPES, 300 mM NaCl, pH 7.0 (storage and characterization buffer); single-site model
From the text: isothermal titration calorimetry on Athe_0597

Athe_0598 [4] = target: T1, Athe_0598; test: isothermal titration calorimetry; conditions: 25 °C; 50 mM HEPES, 300 mM NaCl, pH 7.0 (storage and characterization buffer); single-site model
From the text: isothermal titration calorimetry on Athe_0598

Row | ΔTm (°C) (Athe_0598 [1]) | ΔTm (°C) (Athe_0597 [2]) | Kd (Athe_0597 [3]) | Kd (Athe_0598 [4]) | SMILES
1 | 8.53 °C | 7.57 °C | 228 ± 100 nM | 2840 ± 360 nM | OC[C@H]1O[C@@H](O[C@H]2[C@H](O)[C@@H](O)C(O)O[C@@H]2CO)[C@H](O)[C@@H](O)[C@@H]1O (stereo partly shown) [G2, cellobiose]
2 |  | 6.89 °C | 942 ± 120 nM |  | OC[C@H]1O[C@@H](O[C@H]2[C@H](O)[C@@H](O)[C@H](O[C@H]3[C@H](O)[C@@H](O)C(O)O[C@@H]3CO)O[C@@H]2CO)[C@H](O)[C@@H](O)[C@@H]1O (stereo partly shown) [G3, cellotriose]
3 |  | 9.30 °C | 1970 ± 520 nM |  | OC[C@H]1O[C@@H](O[C@H]2[C@H](O)[C@@H](O)[C@H](O[C@H]3[C@H](O)[C@@H](O)[C@H](O[C@H]4[C@H](O)[C@@H](O)C(O)O[C@@H]4CO)O[C@@H]3CO)O[C@@H]2CO)[C@H](O)[C@@H](O)[C@@H]1O (stereo partly shown) [G4, cellotetraose]
4 |  | 8.72 °C | 1180 ± 120 nM |  | OC[C@H]1O[C@@H](O[C@H]2[C@H](O)[C@@H](O)[C@H](O[C@H]3[C@H](O)[C@@H](O)[C@H](O[C@H]4[C@H](O)[C@@H](O)[C@H](O[C@H]5[C@H](O)[C@@H](O)C(O)O[C@@H]5CO)O[C@@H]4CO)O[C@@H]3CO)O[C@@H]2CO)[C@H](O)[C@@H](O)[C@@H]1O (stereo partly shown) [G5, cellopentaose]
